Patent US12246040B2, “Human homogeneous amniotic fluid stem cell lines and uses thereof” (priority 2018, dated 2025)

Experiments:
Type in all cases: cell-based
[1] = test system: homogeneous human amniotic fluid clonal stem cells; assay: In vitro neural differentiation with pharmacological agent screening; details: neural induction 21 days; results not shown
[2] = test system: homogeneous human amniotic fluid clonal stem cells; assay: In vitro osteocyte differentiation with pharmacological agent screening; details: results not shown
[3] = test system: homogeneous human amniotic fluid clonal stem cells; assay: In vitro chondrocyte differentiation with pharmacological agent screening; details: 21 days; results not shown

SMILES | effect on neural / neurological development [1] | effect on bone development / osteogenic differentiation [2] | effect on chondrogenic differentiation [3]
CCCC(CCC)C(=O)O [VPA, valproic acid] | decreases | does not affect | does not affect
O=S(=O)([O-])[O-].[Mg+2] [MgSO4] | minimal or no effect | minimal or no effect | minimal or no effect
